Key:
FAAH [1] = target: T1, FAAH (Mus musculus, UniProt O08914); experiment: In vivo FAAH inhibition after oral dosing, remaining activity in liver homogenate (LVh, peripheral tissue); design: species or system NMRI mice; settings: liver homogenate, 3 mg/kg, 8 h
T1 construct: A fragment of liver, left lung lobe and brain without cerebellum were removed; from tissue; host or cells: male NMRI mice; brain (without cerebellum) and liver homogenates
T1 sequence (O08914 1-579): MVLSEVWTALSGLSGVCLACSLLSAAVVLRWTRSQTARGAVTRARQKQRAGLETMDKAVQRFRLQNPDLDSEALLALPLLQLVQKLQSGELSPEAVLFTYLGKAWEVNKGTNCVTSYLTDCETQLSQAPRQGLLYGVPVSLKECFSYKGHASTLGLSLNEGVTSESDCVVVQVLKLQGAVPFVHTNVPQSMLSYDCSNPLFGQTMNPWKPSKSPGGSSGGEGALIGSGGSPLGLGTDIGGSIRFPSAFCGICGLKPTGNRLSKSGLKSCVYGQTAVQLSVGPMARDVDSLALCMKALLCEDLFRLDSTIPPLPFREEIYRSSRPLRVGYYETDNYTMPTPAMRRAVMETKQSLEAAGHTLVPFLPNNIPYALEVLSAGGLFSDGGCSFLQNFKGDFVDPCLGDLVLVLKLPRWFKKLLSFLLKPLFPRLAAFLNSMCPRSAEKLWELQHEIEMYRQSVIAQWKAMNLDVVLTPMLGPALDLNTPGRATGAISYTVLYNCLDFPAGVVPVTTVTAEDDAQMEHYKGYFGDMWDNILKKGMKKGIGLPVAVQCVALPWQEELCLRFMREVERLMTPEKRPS
In short: (§1)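 Remaining FAAH activity is given as % of vehicle-treated controls after blank subtraction, measured by radiolabelled AEA hydrolysis (2 μM AEA, 5 nM 3H-AEA, 37 °C) in brain (10 min) or liver (7 min) homogenates. These came from fasted male NMRI mice dosed orally at 30 or 3 mg/kg.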

FAAH [2] = target: T1, FAAH; experiment: In vivo FAAH inhibition after oral dosing, remaining activity in brain homogenate (BRh, central nervous tissue); design: species or system NMRI mice; settings: brain homogenate, 3 mg/kg, 8 h
In short: as §1

FAAH [3] = target: T2, FAAH (Rattus norvegicus, UniProt P97612); experiment: In vitro FAAH activity in rat brain membranes, 3H-AEA substrate, % of control; assay type: biochemical, Wistar rats; settings: low value = strong inhibitor; for In Vitro FAAH activity, 100 nM: 100 nM test compound; for In Vitro FAAH activity, 10 uM: 10 uM test compound
T2 construct: Frozen brains (without cerebellum) from Wistar rats were used; from tissue; host or cells: Wistar rat brain (without cerebellum), washed membrane pellets
T2 sequence (P97612 1-579): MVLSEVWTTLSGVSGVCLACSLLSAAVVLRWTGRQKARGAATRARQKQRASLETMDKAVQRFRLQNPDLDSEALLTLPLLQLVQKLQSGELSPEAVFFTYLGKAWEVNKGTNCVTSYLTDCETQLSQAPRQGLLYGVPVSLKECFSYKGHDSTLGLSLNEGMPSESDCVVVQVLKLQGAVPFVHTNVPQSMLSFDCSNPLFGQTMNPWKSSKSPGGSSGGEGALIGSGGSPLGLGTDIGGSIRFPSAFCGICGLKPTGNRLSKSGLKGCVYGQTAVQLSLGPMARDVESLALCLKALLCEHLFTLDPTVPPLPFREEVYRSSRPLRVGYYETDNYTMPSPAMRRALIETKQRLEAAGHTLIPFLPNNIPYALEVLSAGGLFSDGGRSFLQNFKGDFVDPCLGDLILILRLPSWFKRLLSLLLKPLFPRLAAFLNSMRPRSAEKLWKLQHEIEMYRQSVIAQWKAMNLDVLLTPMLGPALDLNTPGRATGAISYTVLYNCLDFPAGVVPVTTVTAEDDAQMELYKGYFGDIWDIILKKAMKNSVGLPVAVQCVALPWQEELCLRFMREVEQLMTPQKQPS
In short: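 FAAH activity measured as 3H-ethanolamine released from 2 μM [3H]AEA over 10 min by rat brain membrane preparation, after 15 min 37 °C preincubation with test compound at 10 or 0.1 μM. Charcoal-separated supernatant scintillation-counted; values expressed as % of control minus no-protein blank.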

SMILES	In Vivo LVh 3 mg/kg 8 h, remaining FAAH activity (FAAH [1])	In Vivo BRh 3 mg/kg 8 h, remaining FAAH activity (FAAH [2])	In Vitro FAAH activity, 100 nM (FAAH [3])	In Vitro FAAH activity, 10 uM (FAAH [3])
NC(=O)c1ccc(Oc2cccc(-c3ncn(C(=O)N4CCN(c5ccccc5)CC4)n3)c2)cc1 [Compound 208, 4-(3-(1-(4-phenylpiperazine-1-carbonyl)-1H-1,2,4-triazol-3-yl)phenoxy)benzamide]	96.7 % of control	97.2 % of control	0.2 % of control	
CC1(C)COCN1C(=O)n1cnc(-c2cccc(Oc3ccc(C(N)=O)cc3)c2)n1 [Compound 209, 4-(3-(1-(4,4-dimethyloxazolidine-3-carbonyl)-1H-1,2,4-triazol-3-yl)phenoxy)benzamide]	70.1 % of control	99.8 % of control	101.5 % of control	
CC1(C)COCN1C(=O)n1cnc(-c2cccs2)n1 [Compound 213, (4,4-dimethyloxazolidin-3-yl)(3-(thiophen-2-yl)-1H-1,2,4-triazol-1-yl)methanone]	6.9 % of control	53.7 % of control	105.6 % of control	
COc1ccc(-c2cn(C(=O)N3COCC3(C)C)cn2)cc1OC [Compound 216, (4-(3,4-dimethoxyphenyl)-1H-imidazol-1-yl)(4,4-dimethyloxazolidin-3-yl)methanone]	13.3 % of control	29.3 % of control	108.6 % of control	38.3 % of control
COc1ccc(-c2cn(C(=O)N(C)C3CCCCC3)cn2)cc1OC [Compound 217, N-cyclohexyl-4-(3,4-dimethoxyphenyl)-N-methyl-1H-imidazole-1-carboxamide]	4.2 % of control	6 % of control	80.5 % of control	0 % of control
CC1(C)COCN1C(=O)n1cnc2ccccc21 [Compound 219, (1H-benzo[d]imidazol-1-yl)(4,4-dimethyloxazolidin-3-yl)methanone]	89 % of control	86.8 % of control	111.6 % of control	50.6 % of control
CC1(C)OCCN1C(=O)n1cnc(-c2ccccc2)c1 [Compound 220, (2,2-dimethyloxazolidin-3-yl)(4-phenyl-1H-imidazol-1-yl)methanone]	20 % of control	31.5 % of control	103.7 % of control	
C[C@@H]1CCC[C@H](C)N1C(=O)n1cnc(-c2ccccc2)c1 [Compound 221, ((2R,6S)-2,6-dimethylpiperidin-1-yl)(4-phenyl-1H-imidazol-1-yl)methanone]	44.9 % of control	104.5 % of control	105.8 % of control	
CN(C(=O)n1cnc2ccccc21)C1CCCCC1 [Compound 222, N-cyclohexyl-N-methyl-1H-benzo[d]imidazole-1-carboxamide]	59.2 % of control	111.5 % of control	102.9 % of control	
CC1(C)COCN1C(=O)n1cnc(-c2cccnc2)c1.Cl.Cl [Compound 226, (4,4-dimethyloxazolidin-3-yl)(4-(pyridin-3-yl)-1H-imidazol-1-yl)methanone dihydrochloride]	5.1 % of control	8.4 % of control	76.6 % of control	
COc1cc(-c2cn(C(=O)N3COCC3(C)C)cn2)ccc1O [Compound 228, (4,4-dimethyloxazolidin-3-yl)(4-(4-hydroxy-3-methoxyphenyl)-1H-imidazol-1-yl)methanone]	31.9 % of control	56.4 % of control	78.1 % of control	

Now from value to compound:

In Vivo LVh 3 mg/kg 8 h, remaining FAAH activity (FAAH [1])	In Vivo BRh 3 mg/kg 8 h, remaining FAAH activity (FAAH [2])	In Vitro FAAH activity, 100 nM (FAAH [3])	In Vitro FAAH activity, 10 uM (FAAH [3])	SMILES
3.6 % of control	3.9 % of control	54.2 % of control		CC1(C)COCN1C(=O)n1cnc(-c2cccc(-c3ccccc3)c2)c1 [Compound 231, (4-(biphenyl-3-yl)-1H-imidazol-1-yl)(4,4-dimethyloxazolidin-3-yl)methanone]
6.5 % of control	82.8 % of control	84.7 % of control	0 % of control	CC1(C)COCN1C(=O)n1cnc(-c2cccc(-c3cccc(C(N)=O)c3)c2)c1 [Compound 232, 3′-(1-(4,4-dimethyloxazolidine-3-carbonyl)-1H-imidazol-4-yl)biphenyl-3-carboxamide]
21.1 % of control	33.5 % of control	74.1 % of control		CCC1(C)OCCN1C(=O)n1cnc(-c2ccc(Cl)cc2)c1 (stereo not shown) [Compound 233, (4-(4-chlorophenyl)-1H-imidazol-1-yl)(2-ethyl-2-methyloxazolidin-3-yl)methanone]
80.1 % of control	108.5 % of control	76.2 % of control		CC1OCC(C)(C)N1C(=O)n1cnc(-c2ccc(Cl)cc2)c1 (stereo not shown) [Compound 235, (4-(4-chlorophenyl)-1H-imidazol-1-yl)(2,4,4-trimethyloxazolidin-3-yl)methanone]
37.7 % of control	67.7 % of control	75.4 % of control		COc1cccc(-c2cccc(-c3cn(C(=O)N4COCC4(C)C)cn3)c2)c1 [Compound 236, (4,4-dimethyloxazolidin-3-yl)(4-(3′-methoxybiphenyl-3-yl)-1H-imidazol-1-yl)methanone]
2.8 % of control	67.9 % of control	1.2 % of control		CN(C(=O)n1cnc(-c2cccc(-c3cccc(C(N)=O)c3)c2)c1)C1CCCCC1 [Compound 238, 4-(3′-carbamoylbiphenyl-3-yl)-N-cyclohexyl-N-methyl-1H-imidazole-1-carboxamide]
4.6 % of control	16.4 % of control	4 % of control		CN(C(=O)n1cnc(-c2cccc(-c3ccccc3)c2)c1)C1CCCCC1 [Compound 239, 4-(biphenyl-3-yl)-N-cyclohexyl-N-methyl-1H-imidazole-1-carboxamide]
39.5 % of control	99 % of control	22.4 % of control		COc1cccc(-c2cccc(-c3cn(C(=O)N(C)C4CCCCC4)cn3)c2)c1 [Compound 240, N-cyclohexyl-4-(3′-methoxybiphenyl-3-yl)-N-methyl-1H-imidazole-1-carboxamide]
15.8 % of control	90.6 % of control	0.4 % of control		CN(C(=O)n1cnc(-c2cccc(-c3ccc(C(N)=O)cc3)c2)c1)C1CCCCC1 [Compound 245, 4-(4′-carbamoylbiphenyl-3-yl)-N-cyclohexyl-N-methyl-1H-imidazole-1-carboxamide]

From patent US9353082B2, “Pharmaceutical compounds” (BIAL—PORTELA & CA, S.A., priority 2008, dated 2016)
